# Reference: patent publication US11512053B2, “Arginine methyltransferase inhibitors and uses thereof” (priority 2013, dated 2022)
# Like-named read-outs stand apart in the source and are kept apart here.
# Assays:
# [1] = molecular target: full-length human PRMT6 (Flag- and His-tagged) (Homo sapiens, UniProt Q96LA8); assay: PRMT6 Biochemical Assay (3H-SAM Flashplate, peptide substrate); conditions: read-out: Biochemical IC50 PRMT6
# Text: General Materials. S-adenosylmethionine (SAM), S-adenosylhomocysteine (SAH), bicine, Tween20, dimethylsulfoxide (DMSO), bovine skin gelatin (BSG), sodium butyrate and Tris(2-carboxyethyl)phosphine hydrochloride solution (TCEP) were purchased from Sigma-Aldrich at the highest level of purity possible. ^3H-SAM was purchase from American Radiolabeled Chemicals with a specific activity of 80 Ci/mmol. 384-well streptavidin Flashplates were purchased from PerkinElmer.
# Substrates. Peptide representative of human histone H4 residues 36-50 was synthesized with an N-terminal linker-affinity tag motif and a C-terminal amide cap by 21st Century Biochemicals. The peptide was purified by high-performance liquid chromatography (HPLC) to greater than 95% purity and confirmed by liquid chromatography mass spectrometry (LC-MS). The sequence was Biot-Ahx-[…]-amide and contained a monomethylated lysine at position 44 (SEQ ID NO.:5).
# Molecular Biology: Full-length human PRMT6 (NM_018137.2) transcript clone was amplified from an HEK 293 cDNA library, incorporating a flanking 5′ sequence encoding a FLAG tag ([…]) (SEQ ID NO.:6) fused directly to Ser 2 of PRMT6 and a 3′ sequence encoding a hexa His sequence (HHHHHH) (SEQ ID NO.:17) fused directly to Asp 375. The amplified gene was subcloned into pFastBacMam (Viva Biotech).
# Protein Expression. Recombinant baculovirus were generated according to Bac-to-Bac kit instructions (Life Technologies). […] Infections were carried out at 37° C. for 48 hours, harvested by centrifugation, and stored at −80° C. for purification.
# Protein Purification. […] Column was washed with 20 mM imidazole in the same buffer and Flag-PRMT6-His was eluted with 150 mM imidazole. Pooled fractions were dialysed against buffer N^1-A and further purified by anti-flag M2 affinity chromatography. Flag-PRMT6-His was eluted with 200 ug/ml FLAG peptide in the same buffer. Pooled fractions were dialysed in 20 mM Tris, 150 mM NaCl, 10% glycerol and 5 mM β-mercaptoethanol, pH 7.8. The purity of recovered protein was 95%.
# General Procedure for PRMT6 Enzyme Assays on Peptide Substrates. The assays were all performed in a buffer consisting of 20 mM Bicine (pH=7.6), 1 mM TCEP, 0.005% BSG, and 0.002% Tween 20, prepared on the day of use. Compounds in 100% DMSO (1 ul) were spotted into a polypropylene 384-well V-bottom plates (Greiner) using a Platemate Plus outfitted with a 384-channel head (Thermo Scientific). DMSO (1 ul) was added to Columns 11, 12, 23, 24, rows A-H for the maximum signal control and 1 ul of SAH, a known product and inhibitor of PRMT6, was added to columns 11, 12, 23, 24, rows I-P for the minimum signal control. A cocktail (40 ul) containing the PRMT6 enzyme was added by Multidrop Combi (Thermo-Fisher). The compounds were allowed to incubate with PRMT6 for 30 min at room temperature, then a cocktail (10 ul) containing SAM and peptide was added to initiate the reaction (final volume=51 ul). The final concentrations of the components were as follows: PRMT6 was 1 nM, ^3H-SAM was 200 nM, non-radiolabeled SAM was 250 nM, peptide was 75 nM, SAH in the minimum signal control wells was 1 mM, and the DMSO concentration was 2%. The assays were stopped by the addition of non-radiolabeled SAM (10 ul) to a final concentration of 400 uM, which dilutes the ^3H-SAM to a level where its incorporation into the peptide substrate is no longer detectable. 50 ul of the reaction in the 384-well polypropylene plate was then transferred to a 384-well Flashplate and the biotinylated peptides were allowed to bind to the streptavidin surface for at least 1 hour before being washed once with 0.1% Tween20 in a Biotek ELx405 plate washer. The plates were then read in a PerkinElmer TopCount plate reader to measure the quantity of ^3H-labeled peptide bound to the Flashplate surface, measured as disintegrations per minute (dpm) or alternatively, referred to as counts per minute (cpm). […]
# [2] = tested on: mono-methyl arginine in RKO cells; assay: RKO Methylation Assay, In Cell Western (ICW) for detection of mono-methyl arginine and DNA content; format: cell-based; conditions: Homo sapiens, RKO, 72 h, RKO cells, read-out: In Cell Western EC30
# Text: RKO adherent cells were purchased from ATCC (American Type Culture Collection), Manassas, Va., USA. DMEM/Glutamax medium, penicillin-streptomycin, heat inactivated fetal bovine serum, 0.05% trypsin and D-PBS were purchased from Life Technologies, Grand Island, N.Y., USA. Odyssey blocking buffer, 800 CW goat anti-rabbit IgG (H+L) antibody, and Licor Odyssey infrared scanner were purchased from Licor Biosciences, Lincoln, Nebr., USA. Mono-methyl arginine antibody was purchased from Cell Signaling Technology, Danvers, Mass., USA. Methanol was purchased from VWR, Franklin, Mass., USA. 10% Tween 20 was purchased from KPL, Inc., Gaithersburg, Md., USA. DRAQ5 was purchased from Biostatus Limited, Leicestershire, UK.
# RKO adherent cells were maintained in growth medium (DMEM/Glutamax medium supplemented with 10% v/v heat inactivated fetal bovine serum and 100 units/mL penicillin-streptomycin) and cultured at 37° C. under 5% CO2.
# Cell treatment, In Cell Western (ICW) for detection of mono-methyl arginine and DNA content. […] Compound (100 nL) from a 96-well source plate was added directly to 384 well cell plate. Plates were incubated at 37° C., 5% CO2 for 72 hours. After three days of incubation, plates were brought to room temperature outside of the incubator for ten minutes and blotted on paper towels to remove cell media. 50 μL of ice cold 100% methanol was added directly to each well and incubated for 30 min at room temperature. After 30 min, plates were transferred to a Biotek EL406 plate washer and washed 2 times with 100 μL per well of wash buffer (1×PBS). Next 60 μL per well of Odyssey blocking buffer (Odyssey Buffer with 0.1% Tween 20 (v/v)) were added to each plate and incubated 1 hour at room temperature. Blocking buffer was removed and 20 μL per well of primary antibody was added (mono-methyl arginine diluted 1:200 in Odyssey buffer with 0.1% Tween 20 (v/v)) and plates were incubated overnight (16 hours) at 4° C. Plates were washed 5 times with 100 μL per well of wash buffer. […] The plates were washed 5 times with 100 μL per well wash buffer then 2 times with 100 μL per well of water. Plates were allowed to dry at room temperature then imaged on the Licor Odyssey machine which measures integrated intensity at 700 nm and 800 nm wavelengths. Both 700 and 800 channels were scanned.
# Calculations: First, the ratio for each well was determined by:
# Each plate included fourteen control wells of DMSO only treatment (minimum activation) as well as fourteen control wells for maximum activation treated with 20 μM of a reference compound. The average of the ratio values for each control type was calculated and used to determine the percent activation for each test well in the plate. Reference compound was serially diluted three-fold in DMSO for a total of nine test concentrations, beginning at 20 μM. Percent activation was determined and EC30 curves were generated using triplicate wells per concentration of compound.
# [3] = single experiment or average of multiple experiments
# [4] = 72 hours compound incubation, mono-methyl arginine signal normalised to DNA content (DRAQ5), percent activation vs 20 μM reference compound
# [5] = 72 hours incubation, mono-methyl arginine signal normalised to DNA content, single experiment or average of multiple experiments
# full-length human PRMT6 (Flag- and His-tagged), sequence (Q96LA8 with tags, fused parts or gaps): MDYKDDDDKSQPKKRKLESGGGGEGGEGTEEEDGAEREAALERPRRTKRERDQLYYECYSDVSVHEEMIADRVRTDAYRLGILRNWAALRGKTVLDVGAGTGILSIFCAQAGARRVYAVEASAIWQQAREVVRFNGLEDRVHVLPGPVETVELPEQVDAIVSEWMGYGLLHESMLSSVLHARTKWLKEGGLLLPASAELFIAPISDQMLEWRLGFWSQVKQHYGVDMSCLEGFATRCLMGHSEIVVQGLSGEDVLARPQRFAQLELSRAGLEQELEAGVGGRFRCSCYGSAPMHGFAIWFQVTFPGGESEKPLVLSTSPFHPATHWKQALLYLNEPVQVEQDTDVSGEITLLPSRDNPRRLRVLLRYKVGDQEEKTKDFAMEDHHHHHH
SMILES,IC50 [1],"IC50 [1, 3]","EC30 [2, 4]","EC30 [2, 5]"
CCOC1CC(OCC)CC(c2n[nH]cc2CN(C)CCNC)C1 (stereo not drawn) [Compound 132],3010 to 10000 nM,5500 nM,–,3.8 nM
CNCCN(C)Cc1c[nH]nc1C1CCC2(CC1)CC2 [Compound 144],< 100 nM,35.6 nM,< 3000 nM,63 nM
CNCCN(C)Cc1c[nH]nc1C1CCC2(CC1)CN(CC(C)C)C(=O)N2C (stereo not drawn) [Compound 145],< 100 nM,38 nM,< 3000 nM,2300 nM
CNCCN(C)Cc1c[nH]nc1C1CCC2(CC1)CC(=O)N(Cc1ccc(OC)cc1)C2 (stereo not drawn) [Compound 146],< 100 nM,21.7 nM,< 3000 nM,160 nM
CNCCN(C)Cc1c[nH]nc1C1CCC2(CC1)CNC(=O)C2 (stereo not drawn) [Compound 147],< 100 nM,32.7 nM,3010 to 12000 nM,8600 nM
CC[C@H]1CC[C@H](c2n[nH]cc2CN(C)CCNC)CC1 [Compound 148],< 100 nM,8.1 nM,< 3000 nM,16 nM
CNCCN(C)Cc1c[nH]nc1C1CCC(C)CC1 (stereo not drawn) [Compound 149],< 100 nM,7.2 nM,< 3000 nM,106 nM
CNCCN(C)Cc1c[nH]nc1C1CCC2(CC1)OCC(C(C)C)CO2 (stereo not drawn) [Compound 150],< 100 nM,55.6 nM,< 3000 nM,256 nM
CNCCN(C)Cc1c[nH]nc1C1CCC2(CC1)CN(C)C(=O)N2CC(C)C (stereo not drawn) [Compound 151],< 100 nM,47.7 nM,< 3000 nM,705 nM
CNCCN(C)Cc1c[nH]nc1C1CCC2(CC1)CCN(C)C2=O (stereo not drawn) [Compound 152],< 100 nM,35.2 nM,< 3000 nM,119 nM
CNCCN(C)Cc1c[nH]nc1C1CCC(OCC(C)C)CC1 (stereo not drawn) [Compound 153],< 100 nM,28.4 nM,< 3000 nM,129 nM
CCN1CC2(CCC(c3n[nH]cc3CN(C)CCNC)CC2)N(C)C1=O (stereo not drawn) [Compound 154],< 100 nM,44.3 nM,< 3000 nM,1790 nM
CNCCN(C)Cc1c[nH]nc1[C@H]1CC[C@]2(CC1)CC(=O)N(CC(C)C)C2 [Compound 155],< 100 nM,60.8 nM,3010 to 12000 nM,4080 nM
CNCCN(C)Cc1c[nH]nc1[C@H]1CC[C@@]2(CC1)CC(=O)N(CC(C)C)C2 [Compound 156],< 100 nM,57.8 nM,< 3000 nM,1360 nM
CNCCN(C)Cc1c[nH]nc1C1CCC2(CC1)CC(=O)N(C)C2 (stereo not drawn) [Compound 157],< 100 nM,47.9 nM,< 3000 nM,2490 nM
CCOC1CC(OCC)CC2(CCC(c3n[nH]cc3CN(C)CCNC)CC2)C1 (stereo not drawn) [Compound 159],< 100 nM,53.8 nM,< 3000 nM,63 nM

# More lines, main results first:
IC50 [1],"IC50 [1, 3]",SMILES,"EC30 [2, 4]","EC30 [2, 5]"
< 100 nM,13.1 nM,CNCCN(C)Cc1c[nH]nc1[C@H]1CC[C@@]2(CCN(Cc3ccc(F)cc3)C2=O)CC1 [Compound 125],< 3000 nM,87.6 nM
< 100 nM,9.4 nM,CNCCN(C)Cc1c[nH]nc1[C@H]1CC[C@@]2(CCN(Cc3cc(F)cc(F)c3)C2=O)CC1 [Compound 126],< 3000 nM,638 nM
< 100 nM,22.3 nM,CNCCN(C)Cc1c[nH]nc1[C@H]1CC[C@@]2(CCN(Cc3ccccc3)C2=O)CC1 [Compound 127],< 3000 nM,29.2 nM
< 100 nM,13.1 nM,CNCCN(C)Cc1c[nH]nc1[C@H]1CC[C@]2(CCN(Cc3ccccc3)C2=O)CC1 [Compound 128],< 3000 nM,1080 nM
< 100 nM,29.7 nM,CNCCN(C)Cc1c[nH]nc1[C@H]1CC[C@@]2(CCN(CC(C)C)C2=O)CC1 [Compound 129],< 3000 nM,4.5 nM
< 100 nM,7.2 nM,CNCCN(C)Cc1c[nH]nc1C1CCC(OCCOc2ccccc2)CC1 (stereo not drawn) [Compound 136],< 3000 nM,35 nM
< 100 nM,23.3 nM,CNCCN(C)Cc1c[nH]nc1C1CCC2(CCCCO2)CC1 (stereo not drawn) [Compound 137],< 3000 nM,15 nM
< 100 nM,22.6 nM,CNCCN(C)Cc1c[nH]nc1[C@H]1CC[C@H](OC2CCCCC2)CC1 [Compound 139],< 3000 nM,627 nM
< 100 nM,24 nM,CNCCN(C)Cc1c[nH]nc1[C@H]1CC[C@@H](OC2CCCCC2)CC1 [Compound 140],< 3000 nM,164 nM
< 100 nM,23 nM,CNCCN(C)Cc1c[nH]nc1[C@H]1CC[C@@]2(CCOC2)CC1 [Compound 141],< 3000 nM,132 nM
< 100 nM,19.9 nM,CNCCN(C)Cc1c[nH]nc1[C@H]1CC[C@]2(CCOC2)CC1 [Compound 142],< 3000 nM,52 nM
< 100 nM,22 nM,CNCCN(C)Cc1c[nH]nc1[C@H]1CC[C@@]2(CCCO2)CC1 [Compound 143],< 3000 nM,59 nM
